Data set [1] has as its target T1, CYP3A2 (Rattus norvegicus, UniProt P05183).
T1 construct: tissue Merck; host or cells: pooled liver microsomes from male Sprague Dawley rats
T1 sequence (P05183 1-504): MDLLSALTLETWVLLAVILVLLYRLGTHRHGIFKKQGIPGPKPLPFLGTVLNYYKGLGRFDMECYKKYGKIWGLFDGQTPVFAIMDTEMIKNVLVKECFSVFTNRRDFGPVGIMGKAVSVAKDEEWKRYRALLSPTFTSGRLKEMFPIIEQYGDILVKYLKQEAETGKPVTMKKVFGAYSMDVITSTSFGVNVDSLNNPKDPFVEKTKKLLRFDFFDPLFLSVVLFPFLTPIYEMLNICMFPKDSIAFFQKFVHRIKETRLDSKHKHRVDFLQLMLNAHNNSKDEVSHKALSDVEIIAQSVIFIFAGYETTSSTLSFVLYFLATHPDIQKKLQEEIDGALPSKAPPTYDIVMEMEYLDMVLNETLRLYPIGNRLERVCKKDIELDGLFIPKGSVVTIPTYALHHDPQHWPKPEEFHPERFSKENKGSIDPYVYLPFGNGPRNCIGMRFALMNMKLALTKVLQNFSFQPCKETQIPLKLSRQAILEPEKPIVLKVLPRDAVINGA
In words: Inhibition of dexamethasone 6β-hydroxylation (CYP3A2 activity) by aspirin in rat liver microsomes, HPLC. Conditions: for Clint: Vmax/Km; for Vmax: n = 3. It counts as in vitro ADME. How it is done:
Assay development and validation were carried out using a LC-2010A HT Module HPLC system (Shimadzu, Toyko, Japan). […] The chromatographic separation was performed at 25 °C and at a flow rate of 0.6 mL/min. A 10 µL solution volume was injected for HPLC analysis, and all the components were detected at the 243 nm wavelength. Table 11 provides information concerning efficiency (N), where N = 5.54 × (tR/W½) and W½ = width at half peak height; plate height (H), where H(cm) = column length/N; asymmetry factor (AsF), where AsF = B/A, and A is the distance from the leading edge of the peak to the midpoint of the peak measured at 10% of peak height, and B is the distance from the midpoint of the peak to the trailing edge of the peak measured at 10% of the peak height; and resolution (Rs), where Rs = 2∆tR/0.5(W1 + W2), and W is the width at the peak base.
Ice-cold-grade acetonitrile containing 15 µM 4-hydroxyoctanophenone (as an internal standard) was added to terminate the reaction. […] The polar extracts were evaporated to dryness, and the residues were dissolved in the mobile phase (70% acetonitrile and 30% water, v/v) and made up to 1000 µL in volume. An amount of 10 µL of each sample was injected into the HPLC instrument for analysis.
Data were analysed using Microsoft Excel 2010 software for validation and the kinetic parameters. All results are shown as mean ± S.D. The least-square regression analysis was performed to calculate the concentration of the metabolite produced by the CYP reaction. Secondary Lineweaver–Burk plots and Michaelis–Menten plots were plotted to find kinetic parameters such as Ki, Vmax, Km, Clint, and α^,. Inhibition was assumed to be competitive based on the obtained data and based on a visual inspection of the Lineweaver–Burk plot. […] Km values were used to calculate the percentage of inhibition.
(In general: Liver microsomes are vesicles of endoplasmic reticulum, rich in cytochrome P450 enzymes.)

A short description of data set [2]: Solution stability of working standards at ambient temperature, intraday and interday, HPLC. The class given is physicochemical. To be noted: for Solution stability: intraday and interday analysis. How it is done: Stability samples were analyzed in triplicate.
Experiments were performed in triplicate, and the results are summarized below in Table 8.

Substrate in data set [3]: C[C@@H]1C[C@H]2[C@@H]3CCC4=CC(=O)C=C[C@]4(C)[C@@]3(F)[C@@H](O)C[C@]2(C)[C@@]1(O)C(=O)CO
In words: cells, lysate or membranes named. To be noted: other: 0 µM aspirin (no inhibitor), rat liver microsomes 0.5 mg/mL, n = 3; pH 7.4; 37.0 °C.

The mark [4] stands for this setting: male, rat, liver microsomes, pH 7.4, probe dexamethasone (6β-hydroxylation), 10, 20, 30, 40 and 50 µM.

Entries after “also recorded” stand apart in the source; their conditions may differ.

One may read the IC50 as the concentration at which inhibition is half-maximal. Read a low IC50 as higher potency. As usually defined, the inhibition is the share of the control response that was lost under treatment. Read a low inhibition as little suppression. By Ki is commonly meant a measure of affinity in units of concentration, obtained from inhibition or displacement. As usually defined, the Km is the concentration of substrate that gives half-maximal velocity.

`CC(=O)Oc1ccccc1C(=O)O` [Aspirin, acetylsalicylic acid] returned an IC50 in data set [1] of 191 µM. The figures for the á in data set [1] (50 µM aspirin), in data set [1] (100 µM aspirin) and in data set [1] (200 µM aspirin) were 1.03 ± 0.01, 1.02 ± 0.06 and 1.04 ± 0.01, respectively. In addition, the “Mode of inhibition of CYP3A2” value in data set [1] (Lineweaver-Burk plot, rat liver microsomes) was “competitively inhibits; also recorded: competitive inhibitor”. The Clint in data set [1] (with 50 µM aspirin) is given as 0.0005 ± 4.00 × 10^−6 µM^−2∙min^−1; in data set [1] (with 100 µM aspirin), 0.0005 ± 5.00 × 10^−5 µM^−2∙min^−1; in data set [1] (with 200 µM aspirin), 0.0004 ± 1.00 × 10^−5 µM^−2∙min^−1. Further, in data set [1] (aspirin 50, 100 and 200 µM), the “Alpha prime (α') values” is on record as “greater than 1.0”. Besides, the inhibition at 40 min, 50 µM in data set [1] (setting [4]) turned out to be 12.4 ± 1.2%. In addition, in data set [1] (setting [4]), the inhibition at 40 min, 100 µM was 23.3 ± 3.3%. In data set [1] (setting [4]), this molecule showed an inhibition at 40 min, 200 µM of 53.6 ± 1.76%. Besides, the Ki in data set [1] (read-out: Ki (inhibition constant)) is 95.5 µM. Further, in data set [1] (weak if IC50 more than 50 µM), the “Strength of inhibition of CYP3A2 isoform activity” value is “weak inhibitory effect”. For the same molecule, the Vmax in data set [1] (with 50 µM aspirin) was 0.0123 ± 1.15 × 10^−4 µM^−1∙min^−1; in data set [1] (with 100 µM aspirin), 0.0127 ± 7.94 × 10^−4 µM^−1∙min^−1; in data set [1] (with 200 µM aspirin), 0.0123 ± 1.73 × 10^−4 µM^−1∙min^−1.

`C[C@@H]1C[C@H]2[C@@H]3C[C@@H](O)C4=CC(=O)C=C[C@]4(C)[C@@]3(F)[C@@H](O)C[C@]2(C)[C@@]1(O)C(=O)CO` [6β-hydroxydexamethasone, 6β-Hydroxydexamethasone]: the “% Recovery” value in data set [2] (Interday 1, 0.3 µM) was 89.49%; in data set [2] (Interday 1, 0.5 µM), 92.64%; in data set [2] (Interday 1, 0.85 µM), 84.06%; in data set [2] (Interday 2, 0.3 µM) it was 105.46%; in data set [2] (Interday 2, 0.5 µM), 94.15%; in data set [2] (Interday 2, 0.85 µM), 81.57%. For the same molecule, the “% Recovery” value in data set [2] (Interday 3, 0.3 µM) amounted to 106.90%; in data set [2] (Interday 3, 0.5 µM), 92.10%; in data set [2] (Interday 3, 0.85 µM), 80.51%; in data set [2] (intraday 0 h, 0.3 µM) it was 98.18%; in data set [2] (intraday 0 h, 0.5 µM) it was 94.82%; in data set [2] (intraday 0 h, 0.85 µM), 99.34%. The “% Recovery” value is recorded as 97.22% in data set [2] (intraday 5 h, 0.3 µM); 87.58% in data set [2] (intraday 5 h, 0.5 µM); 90.45% in data set [2] (intraday 5 h, 0.85 µM); 88.89% in data set [2] (intraday 10 h, 0.3 µM); 87.75% in data set [2] (intraday 10 h, 0.5 µM); 92.98% in data set [2] (intraday 10 h, 0.85 µM). The Solution stability result in data set [2] is “stable”.

For the molecule `C[C@@H]1C[C@H]2[C@@H]3CCC4=CC(=O)C=C[C@]4(C)[C@@]3(F)[C@@H](O)C[C@]2(C)[C@@]1(O)C(=O)CO` [Dexamethasone], the “% Recovery” value in data set [2] (Interday 1, 40 µM) is 80.04%; in data set [2] (Interday 1, 110 µM), 85.81%; in data set [2] (Interday 1, 185 µM), 98.26%; in data set [2] (Interday 2, 40 µM) it was 87.31%; in data set [2] (Interday 2, 110 µM), 91.30%; in data set [2] (Interday 2, 185 µM) it was 104.78%. In addition, the “% Recovery” value is 85.29% in data set [2] (Interday 3, 40 µM); 82.36% in data set [2] (Interday 3, 110 µM); 101.20% in data set [2] (Interday 3, 185 µM); 88.51% in data set [2] (intraday 0 h, 40 µM); 80.58% in data set [2] (intraday 0 h, 110 µM); 95.66% in data set [2] (intraday 0 h, 185 µM). The “% Recovery” value is 80.50% in data set [2] (intraday 5 h, 40 µM); 84.03% in data set [2] (intraday 5 h, 110 µM); 109.49% in data set [2] (intraday 5 h, 185 µM); 80.80% in data set [2] (intraday 10 h, 40 µM); 84.43% in data set [2] (intraday 10 h, 110 µM); 110.03% in data set [2] (intraday 10 h, 185 µM). In addition, the Solution stability result in data set [2] is reported as “stable for up to three days”.

B1: CYP3A2 (Rattus norvegicus) (protein)
chain: MDLLSALTLETWVLLAVILVLLYRLGTHRHGIFKKQGIPGPKPLPFLGTVLNYYKGLGRFDMECYKKYGKIWGLFDGQTPVFAIMDTEMIKNVLVKECFSVFTNRRDFGPVGIMGKAVSVAKDEEWKRYRALLSPTFTSGRLKEMFPIIEQYGDILVKYLKQEAETGKPVTMKKVFGAYSMDVITSTSFGVNVDSLNNPKDPFVEKTKKLLRFDFFDPLFLSVVLFPFLTPIYEMLNICMFPKDSIAFFQKFVHRIKETRLDSKHKHRVDFLQLMLNAHNNSKDEVSHKALSDVEIIAQSVIFIFAGYETTSSTLSFVLYFLATHPDIQKKLQEEIDGALPSKAPPTYDIVMEMEYLDMVLNETLRLYPIGNRLERVCKKDIELDGLFIPKGSVVTIPTYALHHDPQHWPKPEEFHPERFSKENKGSIDPYVYLPFGNGPRNCIGMRFALMNMKLALTKVLQNFSFQPCKETQIPLKLSRQAILEPEKPIVLKVLPRDAVINGA
In the case of B1, in data set [3], the Km is listed as 21.23 ± 0.51 µM.

The values above are taken from PMC8838585, “Development and Validation of a Novel HPLC Method to Analyse Metabolic Reaction Products Catalysed by the CYP3A2 Isoform: In Vitro Inhibition of CYP3A2 Enzyme Activity by Aspirin (Drugs Often Used Together in COVID-19 Treatment)” (Molecules, 2022).
